From patent EP0908457B1, “3-(1,2-benzisothiazol- and isoxazol-5-Y1)-2,4(1H,3H)-pyrimidinedione or thione and 3-(1,2-benzisothiazol- and isoxazol-5-y1)-4(3H)-pyrimidinone or thione herbicidal agents” (BASF AKTIENGESELLSCHAFT, priority 1997, dated 1999)

Assays:
[1] = test system: Monochoria vaginalis, Presl.; assay: Preemergence weed control under flooded paddy conditions, MOOVA (Monochoria); format: in vivo; details: preemergence, flooded paddy, rated three to four weeks after treatment; on herbicidal effect rating, MOOVA: meaning of each grade not given here
Cyperus iria [2] = assay: Preemergence weed control under flooded paddy conditions, CYPIR (Rice Flatsedge); format: in vivo; details: preemergence, flooded paddy, rated three to four weeks after treatment; on herbicidal effect rating, CYPIR: meaning of each grade not given here
[3] = test system: Cyperus serotinus, Rottb.; assay: Preemergence weed control under flooded paddy conditions, CYPSE (Flatsedge); format: in vivo; details: preemergence, rated three to four weeks after treatment; on herbicidal effect rating, CYPSE: meaning of each grade not given here
[4] = test system: Echinochloa oryzoides (Ard.) Fritsch.; assay: Preemergence weed control under flooded paddy conditions, ECHORC (Watergrass (Calif.)); format: in vivo; details: preemergence, flooded paddy, rated three to four weeks after treatment; on herbicidal effect rating, ECHORC: meaning of each grade not given here
[5] = test system: Monochoria vaginalis, Presl.; assay: Postemergence weed control under flooded paddy conditions, MOOVA (Monochoria); format: in vivo; details: rated three to four weeks after treatment
Sagittaria pygmaea, L. [6] = assay: Preemergence weed control under flooded paddy conditions, SAGPY (Arrowhead (Pygmaea)); format: in vivo; details: preemergence, flooded paddy, rated three to four weeks after treatment; on herbicidal effect rating, SAGPY: meaning of each grade not given here
[7] = test system: Cyperus serotinus, Rottb.; assay: Postemergence weed control under flooded paddy conditions, CYPSE (Flatsedge); format: in vivo; details: rated three to four weeks after treatment
[8] = test system: Echinochloa oryzoides (Ard.) Fritsch.; assay: Postemergence weed control under flooded paddy conditions, ECHORC (Watergrass (Calif.)); format: in vivo; details: rated three to four weeks after treatment
Cyperus iria [9] = assay: Postemergence weed control under flooded paddy conditions, CYPIR (Rice Flatsedge); format: in vivo; details: rated three to four weeks after treatment
Sagittaria pygmaea, L. [10] = assay: Postemergence weed control under flooded paddy conditions, SAGPY (Arrowhead (Pygmaea)); format: in vivo; details: rated three to four weeks after treatment
[11] = test system: Oryza sativa, (L.) Tebonnet; assay: Rice tolerance to post-transplant applications under flooded paddy conditions (Example 187), ORYSAT (Rice, Tebonnet); details: rated three to four weeks after treatment
[12] = test system: Oryza sativa, (L.) Tebonnet; assay: Rice tolerance to post-transplant applications under flooded paddy conditions (Example 188), ORYSAT (Rice, Tebonnet); details: rated three to four weeks after treatment

Structure (SMILES): COc1c(-c2nsc3ccc(-n4c(=O)cc(C(F)(F)F)n(C)c4=O)cc23)ccc(C)c1C [Example 267, 2,4(1H,3H)-Pyrimidinedione, 3-[3-(2-methoxy-3,4-xylyl)-1,2-benzisothiazol-5-yl]-1-methyl-6-(trifluoromethyl)-]
- MOOVA herbicidal effect rating ([1]; Rate 0.0320 kg/ha): 7.5
- MOOVA herbicidal effect rating ([1]; Rate 0.0620 kg/ha): 9.0
- MOOVA herbicidal effect rating ([1]; Rate 0.1250 kg/ha): 9.0
- MOOVA herbicidal effect rating ([1]; Rate 0.2500 kg/ha): 9.0
- CYPIR herbicidal effect rating (Cyperus iria [2]; Rate 0.0320 kg/ha): 8.0
- CYPIR herbicidal effect rating (Cyperus iria [2]; Rate 0.0620 kg/ha): 8.0
- CYPIR herbicidal effect rating (Cyperus iria [2]; Rate 0.1250 kg/ha): 9.0
- CYPIR herbicidal effect rating (Cyperus iria [2]; Rate 0.2500 kg/ha): 9.0
- CYPSE herbicidal effect rating ([3]; Rate 0.0320 kg/ha): 0.0
- CYPSE herbicidal effect rating ([3]; Rate 0.0620 kg/ha): 0.0
- CYPSE herbicidal effect rating ([3]; Rate 0.1250 kg/ha): 5.5
- CYPSE herbicidal effect rating ([3]; Rate 0.2500 kg/ha): 9.0
- ECHORC herbicidal effect rating ([4]; Rate 0.0320 kg/ha): 9.0
- ECHORC herbicidal effect rating ([4]; Rate 0.0620 kg/ha): 9.0
- ECHORC herbicidal effect rating ([4]; Rate 0.1250 kg/ha): 9.0
- ECHORC herbicidal effect rating ([4]; Rate 0.2500 kg/ha): 9.0
- herbicidal effect rating, MOOVA ([5]; Rate 0.0320 kg/ha): 9.0
- herbicidal effect rating, MOOVA ([5]; Rate 0.0620 kg/ha): 9.0
- herbicidal effect rating, MOOVA ([5]; Rate 0.1250 kg/ha): 9.0
- herbicidal effect rating, MOOVA ([5]; Rate 0.2500 kg/ha): 9.0
- SAGPY herbicidal effect rating (Sagittaria pygmaea, L. [6]; Rate 0.0320 kg/ha): 0.0
- SAGPY herbicidal effect rating (Sagittaria pygmaea, L. [6]; Rate 0.0620 kg/ha): 1.0
- SAGPY herbicidal effect rating (Sagittaria pygmaea, L. [6]; Rate 0.1250 kg/ha): 3.0
- SAGPY herbicidal effect rating (Sagittaria pygmaea, L. [6]; Rate 0.2500 kg/ha): 5.0
- herbicidal effect rating, CYPSE ([7]; Rate 0.0320 kg/ha): 0.0
- herbicidal effect rating, CYPSE ([7]; Rate 0.0620 kg/ha): 0.0
- herbicidal effect rating, CYPSE ([7]; Rate 0.1250 kg/ha): 0.0
- herbicidal effect rating, CYPSE ([7]; Rate 0.2500 kg/ha): 0.0
- herbicidal effect rating, ECHORC ([8]; Rate 0.0320 kg/ha): 4.0
- herbicidal effect rating, ECHORC ([8]; Rate 0.0620 kg/ha): 8.0
- herbicidal effect rating, ECHORC ([8]; Rate 0.1250 kg/ha): 9.0
- herbicidal effect rating, ECHORC ([8]; Rate 0.2500 kg/ha): 9.0
- herbicidal effect rating, CYPIR (Cyperus iria [9]; Rate 0.0320 kg/ha): 9.0
- herbicidal effect rating, CYPIR (Cyperus iria [9]; Rate 0.0620 kg/ha): 9.0
- herbicidal effect rating, CYPIR (Cyperus iria [9]; Rate 0.1250 kg/ha): 9.0
- herbicidal effect rating, CYPIR (Cyperus iria [9]; Rate 0.2500 kg/ha): 9.0
- herbicidal effect rating, SAGPY (Sagittaria pygmaea, L. [10]; Rate 0.0320 kg/ha): 0.0
- herbicidal effect rating, SAGPY (Sagittaria pygmaea, L. [10]; Rate 0.0620 kg/ha): 0.0
- herbicidal effect rating, SAGPY (Sagittaria pygmaea, L. [10]; Rate 0.1250 kg/ha): 0.0
- herbicidal effect rating, SAGPY (Sagittaria pygmaea, L. [10]; Rate 0.2500 kg/ha): 0.0
- ORYSAT herbicidal effect rating ([11]; Rate 0.0320 kg/ha): 2.0
- ORYSAT herbicidal effect rating ([11]; Rate 0.0620 kg/ha): 3.0
- ORYSAT herbicidal effect rating ([11]; Rate 0.1250 kg/ha): 4.5
- ORYSAT herbicidal effect rating ([11]; Rate 0.2500 kg/ha): 6.0
- herbicidal effect rating, ORYSAT (rice tolerance) ([12]; Rate 0.0320 kg/ha): 2.0
- herbicidal effect rating, ORYSAT (rice tolerance) ([12]; Rate 0.0620 kg/ha): 5.0
- herbicidal effect rating, ORYSAT (rice tolerance) ([12]; Rate 0.1250 kg/ha): 6.0
- herbicidal effect rating, ORYSAT (rice tolerance) ([12]; Rate 0.2500 kg/ha): 7.0

Structure (SMILES): Cc1cc(O)c(-c2nsc3ccc(-n4c(=O)cc(C(F)(F)F)n(C)c4=O)cc23)cc1C [Example 11, 3-[3-(6-Hydroxy-3,4-xylyl)-1,2-benzisothiazol-5-yl]-1-methyl-6-(trifluoromethyl)-2,4(1H,3H)-pyrimidinedione]
- herbicidal effect rating, MOOVA ([1]; 0.0625 kg/ha): 9.0
- herbicidal effect rating, MOOVA ([1]; 0.1250 kg/ha): 9.0
- herbicidal effect rating, MOOVA ([1]; 0.2500 kg/ha): 9.0
- herbicidal effect rating, MOOVA ([1]; 0.5000 kg/ha): 9.0
- herbicidal effect rating, CYPIR (Cyperus iria [2]; 0.0625 kg/ha): 9.0
- herbicidal effect rating, CYPIR (Cyperus iria [2]; 0.1250 kg/ha): 9.0
- herbicidal effect rating, CYPIR (Cyperus iria [2]; 0.2500 kg/ha): 9.0
- herbicidal effect rating, CYPIR (Cyperus iria [2]; 0.5000 kg/ha): 9.0
- herbicidal effect rating, CYPSE ([3]; 0.0625 kg/ha): 2.0
- herbicidal effect rating, CYPSE ([3]; 0.1250 kg/ha): 2.0
- herbicidal effect rating, CYPSE ([3]; 0.2500 kg/ha): 2.0
- herbicidal effect rating, CYPSE ([3]; 0.5000 kg/ha): 7.0
- herbicidal effect rating, ECHORC ([4]; 0.0625 kg/ha): 7.0
- herbicidal effect rating, ECHORC ([4]; 0.1250 kg/ha): 8.0
- herbicidal effect rating, ECHORC ([4]; 0.2500 kg/ha): 8.0
- herbicidal effect rating, ECHORC ([4]; 0.5000 kg/ha): 9.0
- herbicidal effect rating, MOOVA ([5]; Rate 0.0313 kg/ha): 9.0
- herbicidal effect rating, MOOVA ([5]; Rate 0.0625 kg/ha): 9.0
- herbicidal effect rating, MOOVA ([5]; Rate 0.1250 kg/ha): 9.0
- herbicidal effect rating, MOOVA ([5]; Rate 0.2500 kg/ha): 9.0
- herbicidal effect rating, MOOVA ([5]; Rate 0.5000 kg/ha): 9.0
- herbicidal effect rating, SAGPY (Sagittaria pygmaea, L. [6]; 0.0625 kg/ha): 0.0
- herbicidal effect rating, SAGPY (Sagittaria pygmaea, L. [6]; 0.1250 kg/ha): 0.0
- herbicidal effect rating, SAGPY (Sagittaria pygmaea, L. [6]; 0.2500 kg/ha): 2.0
- herbicidal effect rating, SAGPY (Sagittaria pygmaea, L. [6]; 0.5000 kg/ha): 9.0
- herbicidal effect rating, CYPSE ([7]; Rate 0.0313 kg/ha): 0.0
- herbicidal effect rating, CYPSE ([7]; Rate 0.0625 kg/ha): 0.0
- herbicidal effect rating, CYPSE ([7]; Rate 0.1250 kg/ha): 0.0
- herbicidal effect rating, CYPSE ([7]; Rate 0.2500 kg/ha): 0.0
- herbicidal effect rating, CYPSE ([7]; Rate 0.5000 kg/ha): 0.0
- herbicidal effect rating, ECHORC ([8]; Rate 0.0313 kg/ha): 0.0
- herbicidal effect rating, ECHORC ([8]; Rate 0.0625 kg/ha): 0.0
- herbicidal effect rating, ECHORC ([8]; Rate 0.1250 kg/ha): 2.0
- herbicidal effect rating, ECHORC ([8]; Rate 0.2500 kg/ha): 4.0
- herbicidal effect rating, ECHORC ([8]; Rate 0.5000 kg/ha): 7.0
- herbicidal effect rating, CYPIR (Cyperus iria [9]; Rate 0.0313 kg/ha): 8.0
- herbicidal effect rating, CYPIR (Cyperus iria [9]; Rate 0.0625 kg/ha): 9.0
- herbicidal effect rating, CYPIR (Cyperus iria [9]; Rate 0.1250 kg/ha): 9.0
- herbicidal effect rating, CYPIR (Cyperus iria [9]; Rate 0.2500 kg/ha): 9.0
- herbicidal effect rating, CYPIR (Cyperus iria [9]; Rate 0.5000 kg/ha): 9.0
- herbicidal effect rating, SAGPY (Sagittaria pygmaea, L. [10]; Rate 0.0313 kg/ha): 0.0
- herbicidal effect rating, SAGPY (Sagittaria pygmaea, L. [10]; Rate 0.0625 kg/ha): 0.0
- herbicidal effect rating, SAGPY (Sagittaria pygmaea, L. [10]; Rate 0.1250 kg/ha): 0.0
- herbicidal effect rating, SAGPY (Sagittaria pygmaea, L. [10]; Rate 0.2500 kg/ha): 4.0
- herbicidal effect rating, SAGPY (Sagittaria pygmaea, L. [10]; Rate 0.5000 kg/ha): 7.0
- herbicidal effect rating, ORYSAT (rice tolerance) ([11]; 0.0625 kg/ha): 2.0
- herbicidal effect rating, ORYSAT (rice tolerance) ([11]; 0.1250 kg/ha): 2.0
- herbicidal effect rating, ORYSAT (rice tolerance) ([11]; 0.2500 kg/ha): 3.0
- herbicidal effect rating, ORYSAT (rice tolerance) ([11]; 0.5000 kg/ha): 3.0
- herbicidal effect rating, ORYSAT (rice tolerance) ([12]; Rate 0.0313 kg/ha): 0.0
- herbicidal effect rating, ORYSAT (rice tolerance) ([12]; Rate 0.0625 kg/ha): 0.0
- herbicidal effect rating, ORYSAT (rice tolerance) ([12]; Rate 0.1250 kg/ha): 0.0
- herbicidal effect rating, ORYSAT (rice tolerance) ([12]; Rate 0.2500 kg/ha): 1.0
- herbicidal effect rating, ORYSAT (rice tolerance) ([12]; Rate 0.5000 kg/ha): 1.0
